For 24 molecules, inhibition results are on record in patent publication US8153795B2, “Substituted 1-oxa-3,8-diazaspiro[4.5]-decan-2-one-compounds and the use thereof for producing drugs” (Gruenenthal GmbH, priority 2005, dated 2012).

As a reminder, the inhibition is the percentage by which the read-out fell short of the control. Higher therefore signals a response far below the control.

SMILES strings stand for the structures.

One test concerns the target T1, NA transporter (Rattus norvegicus, UniProt Q63380).
T1 construct: from tissue; host or cells: rat brain synaptosomes (P2 fraction) from hypothalamus
In words: noradrenalin uptake inhibition in rat brain synaptosomes (hypothalamus), [3H]-NA. Format: biochemical. From the text:
a) Method for Determining Noradrenalin and 5-HT Uptake Inhibition:
Synaptosomes from rat brain regions are freshly isolated for in vitro studies, as described in the publication “The isolation of nerve endings from brain” by E. G. Gray and V. P. Whittaker, J. Anatomy 96, pages 79-88, 1962. The corresponding literature description is hereby introduced as a reference and is deemed to be part of the disclosure.
The tissue (hypothalamus for the determination of noradrenalin uptake inhibition and medulla and pons for the determination of 5-HT uptake inhibition) is homogenised in ice-cooled 0.32 M sucrose (100 mg of tissue/1 mL) in a glass homogeniser with Teflon pestle using five complete up and down strokes at 840 revolutions/minute.
The homogenate is centrifuged at 4° C. for 10 minutes at 1000 g. After subsequent centrifugation at 17000 g for 55 minutes, the synaptosomes (P2 fraction) are obtained, which are resuspended in 0.32 M […] (0.5 mL/100 mg of original weight).
The particular uptake is measured in a 96-well microtitre plate. The volume is 250 μl and the incubation proceeds at room temperature (approx. 20-25° C.) under an O2 atmosphere.
The incubation time is 7.5 minutes for [^3H]-NA and 5 minutes for [^3H]-5-HT. The 96 samples are then filtered through a Unifilter GF/B® microtitre plate (Packard) and washed with 200 mL of incubated buffer using a “Brabdel MPXRI-96T Cell-Harvester”. The Unifilter GF/B plate is dried for 1 hour at 55° C. The plate is then sealed with a Back Seal® (Packard) and 35 μl of scintillation fluid are added per well (Ultima Gold®, Packard). After sealing with a top Seal® (Packard) and establishing an equilibrium (around 5 hours), radioactivity is determined in a “Trilux 1450 Microbeta” (Wallac).
The quantity of protein used in the above determination corresponds to the values known from the literature, as for example described in “Protein measurement with the folin phenol reagent”, Lowry et al., J. Biol. Chem., 193, 265-275, 1951.
A detailed description of the method may additionally be found in the literature, for example in M. Ch. Frink, H.-H. Hennies, W. Engelberger, M. Haurand and B. Wilffert (1996) Arzneim.-Forsch./Drug Res. 46 (III), 11, 1029-1036.

The target of another test is T2, 5-HT transporter (Rattus norvegicus, UniProt P31652).
T2 construct: from tissue; host or cells: rat brain synaptosomes (P2 fraction) from medulla and pons
T2 sequence (P31652 whole entry): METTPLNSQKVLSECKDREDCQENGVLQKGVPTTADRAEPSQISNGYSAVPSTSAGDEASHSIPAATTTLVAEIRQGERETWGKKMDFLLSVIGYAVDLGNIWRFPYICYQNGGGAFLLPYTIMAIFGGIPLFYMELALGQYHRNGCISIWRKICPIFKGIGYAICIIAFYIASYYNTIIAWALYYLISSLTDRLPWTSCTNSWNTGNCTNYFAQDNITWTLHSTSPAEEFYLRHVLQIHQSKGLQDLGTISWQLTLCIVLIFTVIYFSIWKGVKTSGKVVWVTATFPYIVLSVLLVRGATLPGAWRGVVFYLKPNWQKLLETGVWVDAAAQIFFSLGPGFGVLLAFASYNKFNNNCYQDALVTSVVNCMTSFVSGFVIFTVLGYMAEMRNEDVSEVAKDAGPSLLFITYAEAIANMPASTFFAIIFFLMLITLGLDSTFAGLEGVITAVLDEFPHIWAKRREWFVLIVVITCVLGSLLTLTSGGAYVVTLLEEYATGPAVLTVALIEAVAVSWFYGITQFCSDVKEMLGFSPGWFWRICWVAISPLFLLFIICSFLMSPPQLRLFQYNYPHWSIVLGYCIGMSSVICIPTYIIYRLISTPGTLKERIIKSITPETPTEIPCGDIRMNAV
Briefly: 5-HT uptake inhibition in rat brain synaptosomes (medulla and pons), [3H]-5-HT. Format: biochemical. Put shortly: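 Freshly isolated P2 synaptosomes taken from rat hypothalamus (NA) or medulla/pons (5-HT) were incubated at room temperature under O2 with [3H]-NA for 7.5 min or [3H]-5-HT for 5 min. Uptake was measured as filter-retained radioactivity by scintillation counting.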

T1 sequence (Q63380 1-617): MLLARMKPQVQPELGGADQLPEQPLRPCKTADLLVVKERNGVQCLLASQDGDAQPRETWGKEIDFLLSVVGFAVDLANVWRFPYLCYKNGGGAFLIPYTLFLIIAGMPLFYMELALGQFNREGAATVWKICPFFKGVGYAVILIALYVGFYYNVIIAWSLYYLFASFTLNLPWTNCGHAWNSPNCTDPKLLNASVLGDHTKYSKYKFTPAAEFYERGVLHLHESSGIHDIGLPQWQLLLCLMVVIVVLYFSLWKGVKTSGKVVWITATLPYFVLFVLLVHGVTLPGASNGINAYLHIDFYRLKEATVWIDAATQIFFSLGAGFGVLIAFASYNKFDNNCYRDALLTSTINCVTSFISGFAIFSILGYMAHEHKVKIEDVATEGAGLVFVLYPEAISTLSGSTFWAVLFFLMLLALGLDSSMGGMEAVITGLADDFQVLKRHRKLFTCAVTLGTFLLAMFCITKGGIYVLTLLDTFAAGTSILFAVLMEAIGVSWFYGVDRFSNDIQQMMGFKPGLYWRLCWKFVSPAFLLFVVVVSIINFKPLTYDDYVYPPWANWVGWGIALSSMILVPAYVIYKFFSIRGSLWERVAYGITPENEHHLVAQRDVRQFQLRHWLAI

Turning to `C=CCNC(=S)N1CCC2(CC1)CN(Cc1ccc3ccccc3c1)C(=O)O2` [Example 10, 3-naphthalen-2-ylmethyl-2-oxo-1-oxa-3,8-diazaspiro[4.5]decane-8-carbothioic acid allylamide], the results for the inhibition at 10 µM against NA transporter and against 5-HT transporter were 78% and 50%, respectively.
For `O=C1OC2(CCN(Cc3ccc(OC(F)(F)F)cc3)CC2)CN1Cc1ccccc1` [Example 78, 3-benzyl-8-(4-trifluoromethoxybenzyl)-1-oxa-3,8-diazaspiro[4.5]decan-2-one] the same measures were 53% and 51%.
For `N#Cc1cccc(CN2CC3(CCN(C(=S)NCC4CCCCC4)CC3)OC2=O)c1` [Example 19, 3-(3-cyanobenzyl)-2-oxo-1-oxa-3,8-diazaspiro[4.5]decane-8-carbothioic acid cyclohexylmethylamide] the same measures were 48% and 69%.
For `N#Cc1ccc(CN2CC3(CCN(Cc4cccc([N+](=O)[O-])c4)CC3)OC2=O)cc1` [Example 89, 4-[8-(3-nitrobenzyl)-2-oxo-1-oxa-3,8-diazaspiro[4.5]dec-3-ylmethyl]benzonitrile] the same measures were 57% and 63%.
Regarding `CCOc1ccc(NC(=S)N2CCC3(CC2)CN(Cc2ccc(F)c(F)c2)C(=O)O3)cc1` [Example 13, 3-(3,4-difluorobenzyl)-2-oxo-1-oxa-3,8-diazaspiro[4.5]decane-8-carbothioic acid (4-ethoxyphenyl)amide], the inhibition at 10 µM at NA transporter was determined as 53%; on 5-HT transporter, 44%.
On the same counts, the results for `CCOC(=O)c1cccc(NC(=O)N2CCC3(CC2)CN(Cc2ccc(C)cc2)C(=O)O3)c1` [Example 53, 3-{[3-(4-methylbenzyl)-2-oxo-1-oxa-3,8-diazaspiro[4.5]decane-8-carbonyl]amino}benzoic acid ethyl ester] are 81% and 68%.
For `COc1ccc(NC(=O)N2CCC3(CC2)CN(Cc2ccc4ccccc4c2)C(=O)O3)cc1` [Example 52, 3-naphthalen-2-ylmethyl-2-oxo-1-oxa-3,8-diazaspiro[4.5]decane-8-carboxylic acid (4-methoxyphenyl)amide] the same measures were 96% and 94%.
On the same counts, the results for `Cc1ccccc1NC(=S)N1CCC2(CC1)CN(Cc1ccccc1)C(=O)O2` [Example 8, 3-benzyl-2-oxo-1-oxa-3,8-diazaspiro[4.5]decane-8-carbothioic acid o-tolylamide] are 50% and 62%.
`O=C(CN1CCC2(CC1)CN(Cc1ccccc1F)C(=O)O2)Nc1nc(-c2ccccc2)cs1` [Example 86, 2-[3-(2-fluorobenzyl)-2-oxo-1-oxa-3,8-diazaspiro[4.5]dec-8-yl]-N-(4-phenylthiazol-2-yl)acetamide]: the inhibition at 10 µM worked out at 79% against NA transporter and 56% against 5-HT transporter.
Turning to `COc1ccc([N+](=O)[O-])cc1CN1CC2(CCN(C(=O)NC(C)c3cccc4ccccc34)CC2)OC1=O` (stereo not drawn) [Example 63, 3-(2-methoxy-5-nitrobenzyl)-2-oxo-1-oxa-3,8-diazaspiro[4.5]decane-8-carboxylic acid (1-naphthalen-1-yl-ethyl)amide], the inhibition at 10 µM against NA transporter came to 41%; against 5-HT transporter, 84%.
On to `O=C(NCc1ccc(F)cc1)N1CCC2(CC1)CN(Cc1ccc(F)c(F)c1)C(=O)O2` [Example 28, 3-(3,4-difluorobenzyl)-2-oxo-1-oxa-3,8-diazaspiro[4.5]decane-8-carboxylic acid 4-fluorobenzylamide], for which the inhibition at 10 µM on NA transporter turned out to be 53%; against 5-HT transporter it was 45%.
For `CCOC(=O)c1cccc(NC(=O)N2CCC3(CC2)CN(Cc2cccc(C#N)c2)C(=O)O3)c1` [Example 61, 3-{[3-(3-cyanobenzyl)-2-oxo-1-oxa-3,8-diazaspiro[4.5]decane-8-carbonyl]amino}benzoic acid ethyl ester] the same measures were 77% and 69%.
For `N#Cc1cccc(CN2CC3(CCN(C(=S)Nc4cc(Cl)cc(Cl)c4)CC3)OC2=O)c1` [Example 14, 3-(3-cyanobenzyl)-2-oxo-1-oxa-3,8-diazaspiro[4.5]decane-8-carbothioic acid (3,5-dichlorophenyl)amide] the same measures were 49% and 57%.
For `O=C(CN1CCC2(CC1)CN(Cc1ccccc1C(F)(F)F)C(=O)O2)Nc1ccc(OC(F)(F)F)cc1` [Example 87, 2-[2-oxo-3-(2-trifluoromethylbenzyl)-1-oxa-3,8-diazaspiro[4.5]dec-8-yl]-N-(4-trifluoromethoxyphenyl)acetamide] the same measures were 59% and 72%.
Turning to `Cc1ccc(CN2CC3(CCN(C(=O)Nc4ccc(C)c([N+](=O)[O-])c4)CC3)OC2=O)cc1` [Example 27, 3-(4-methylbenzyl)-2-oxo-1-oxa-3,8-diazaspiro[4.5]decane-8-carboxylic acid (4-methyl-3-nitrophenyl)amide], the results for the inhibition at 10 µM at NA transporter and against 5-HT transporter were 68% and 62%, respectively.
For `COc1ccccc1NC(=S)N1CCC2(CC1)CN(Cc1cccc(Br)c1)C(=O)O2` [Example 6, 3-(3-bromobenzyl)-2-oxo-1-oxa-3,8-diazaspiro[4.5]decane-8-carbothioic acid (2-methoxyphenyl)amide] the same measures were 56% and 63%.
As for `O=C1OC2(CCN(Cc3ccc([N+](=O)[O-])cc3)CC2)CN1Cc1ccc(F)c(F)c1` [Example 74, 3-(3,4-difluorobenzyl)-8-(4-nitrobenzyl)-1-oxa-3,8-diazaspiro[4.5]decan-2-one], the inhibition at 10 µM against NA transporter was determined as 57%; at 5-HT transporter it was 66%.
For `COc1ccc(NC(=O)N2CCC3(CC2)CN(Cc2ccccc2)C(=O)O3)cc1` [Example 39, 3-benzyl-2-oxo-1-oxa-3,8-diazaspiro[4.5]decane-8-carboxylic acid (4-methoxyphenyl)amide] the same measures were 76% and 42%.
On the same counts, the results for `O=C1OC2(CCN(C(=O)c3ccc(-c4ccccc4)cc3)CC2)CN1Cc1cccc(Br)c1` [Example 104, 8-(biphenyl-4-carbonyl)-3-(3-bromobenzyl)-1-oxa-3,8-diazaspiro[4.5]decan-2-one] are 73% and 89%.
For `COc1ccc([N+](=O)[O-])cc1CN1CC2(CCN(C(=S)NCC3CCCO3)CC2)OC1=O` (stereo not drawn) [Example 17, 3-(2-methoxy-5-nitrobenzyl)-2-oxo-1-oxa-3,8-diazaspiro[4.5]decane-8-carbothioic acid (tetrahydrofuran-2-ylmethyl)amide] the same measures were 45% and 50%.
`CC(=O)c1cccc(NC(=S)N2CCC3(CC2)CN(Cc2cc(C)cc(C)c2)C(=O)O3)c1` [Example 7, 3-(3,5-dimethylbenzyl)-2-oxo-1-oxa-3,8-diazaspiro[4.5]decane-8-carbothioic acid (3-acetylphenyl)amide]: the inhibition at 10 µM against NA transporter came to 50%; on 5-HT transporter, 55%.
On the same counts, the results for `O=C(NCc1ccc(Cl)c(Cl)c1)N1CCC2(CC1)CN(Cc1ccc3ccccc3c1)C(=O)O2` [Example 44, 3-naphthalen-2-ylmethyl-2-oxo-1-oxa-3,8-diazaspiro[4.5]decane-8-carboxylic acid 3,4-dichlorobenzylamide] are 61% and 57%.
For the molecule `COc1cccc(NC(=O)N2CCC3(CC2)CN(Cc2ccc(F)c(F)c2)C(=O)O3)c1` [Example 35, 3-(3,4-difluorobenzyl)-2-oxo-1-oxa-3,8-diazaspiro[4.5]decane-8-carboxylic acid (3-methoxyphenyl)amide], the inhibition at 10 µM is 63% at NA transporter and 56% against 5-HT transporter.
As to `N#Cc1cccc(CN2CC3(CCN(C(=S)Nc4cccc(C(F)(F)F)c4)CC3)OC2=O)c1` [Example 15, 3-(3-cyanobenzyl)-2-oxo-1-oxa-3,8-diazaspiro[4.5]decane-8-carbothioic acid (3-trifluoromethylphenyl)amide], the results for the inhibition at 10 µM against NA transporter and at 5-HT transporter were 55% and 57%, respectively.
